The record followed here is patent US4118561A, “7-(Substituted)-7H-pyrrolo[3,2-f]quinazoline-1,3-diamines” (priority 1977, dated 1978).

Converted amounts (≈) assume the structure as drawn. Read-outs that look alike come from different tables or passages of the source. Where only a bound is given, the exact number is not on record here.

In one series the test system is P. vulgaris 6896. The series can be described thus: In vitro antibacterial activity (MIC), P. vulgaris 6896. The conditions noted are these: Proteus vulgaris, 6896, 18 h.
For the next series, the system named is N. catarrhalis 8193. As to the kind of experiment: In vitro antibacterial activity (MIC), N. catarrhalis 8193. Particulars: 18 h.
For the next series, the system named is S. aureus 53-180. As to the kind of experiment: In vitro antibacterial activity (MIC), S. aureus 53-180. The conditions noted are these: Staphylococcus aureus, 53180, 18 h.
The subject of the next series is E. coli 9637. The series can be described thus: In vitro antibacterial activity (MIC), E. coli 9637. Particulars: Escherichia coli, 9637, 18 h.
For the next series, the system named is S. paratyphi 11737. The series can be described thus: In vitro antibacterial activity (MIC), S. paratyphi 11737. Particulars: Salmonella enterica, 18 h. In kind it is cell-based.
In series [1] the test system is Plasmodium berghei KBG 173. As to the kind of experiment: Antimalarial blood schizonticidal test in mice. In kind it is in vivo, Plasmodium berghei (infected ICR/HA Swiss mice). More on the design: ΔMST (increase in mean survival time): unit: days. Particulars: s.c.; for ED100 / minimal effective dose: Plasmodium berghei, sc, single dose; for ED100: read-out: Lowest Dose Curing All Mice; for minimal effective dose: read-out: Min. Curing Dose; for Cure/Treat at Min. Curing Dose: at the Min. Curing Dose. The text has this:
(§1) In addition, the invention provides compounds which have antimalarial activity in vivo as evidenced by a standard blood schizonticidal test in mice infected with Plasmodium berghei KBG 173.
(§2) Utilizing young ICR/HA Swiss mice and a standard inoculum of Plasmodium berghei KBG 173, it is possible to produce a uniform disease fatal to 100% of untreated animals within 6 to 8 days with a mean survival time of 6.2 days. Test animals weigh from 18 to 22 grams but weight variations in any given experimental or control group are confined to 2-3 grams. All animals in any given test are approximately of the same age. Animals on test are housed in metal-topped plastic cages, given a standard laboratory diet and water ad libitum.
(§3) Test animals receive an intraperitoneal injection of 0.5 ml. of 1:100 dilution of heparinized heart's blood with a minimum of 90% parasitized cells (4 × 10^7 cells), drawn from donor mice infected one week earlier with Plasmodium berghei. The donor strain is maintained by weekly passages in separate groups of mice inoculated with a 0.5 ml. of 1:500 dilution of heparinized heart's blood.
(§4) Test compounds are administered after dissolution or suspension in peanut oil. A single dose is given subcutaneously 72 hours after the mice are infected with Plasmodium berghei. At this time a 10-15 percent parasitemia has developed; the disease is well established but has not produced sufficient debility to alter the response of the host to toxic effects of the drug on test. Since treatment is withheld for three days to permit the infection to become well established and death occurs in untreated controls within 6-8 days, it is felt that this system presents a candidate compound with the maximum challenge. In order to check factors such as changes in the infectivity of Plasmodium berghei or in the susceptibility of the host or to detect technical errors, a group of infected animals treated with pyrimethamine at dose levels producing definite increases in survival time is included in a positive control in every experiment.
(§5) In each experiment test compounds are administered in graded dosages. […] However, if an active drug is toxic for the host, its toxicity may become a limiting factor; continued increases in dose levels also increase the toxic effects and may result in the diminution of survival times. Deaths prior to the sixth day, when untreated controls begin to die, are regarded as nonparasitic and become the basis for toxicity evaluations. […] In calculating mean survival time, toxic deaths and 60-day survivors are not included.
(§6) Compounds are considered active which produce a cure in at least one test animal or which produce significant increases in mean survival times of the treated animals as compared with the mean survival times of untreated controls, provided that no drug related deaths (toxicity) are noted at the active dose.

A short description of series [2]: Antimalarial blood schizonticidal test in mice. It counts as in vivo, Plasmodium berghei (infected ICR/HA Swiss mice). On the set-up: ΔMST (increase in mean survival time): unit: days. The conditions noted are these: mouse, in vivo, sc, single dose, read-out: Highest Non-Lethal Dose.
Text: as §1, §2, §3, §4, §5, §6

For the next series, the system named is S. aureus Smith. The series can be described thus: In vitro antibacterial activity (MIC), S. aureus Smith. Particulars: Staphylococcus aureus, 18 h.
Another series relates to K. pneumoniae 10031. The series can be described thus: In vitro antibacterial activity (MIC), K. pneumoniae 10031. Particulars: Klebsiella pneumoniae, 10031, 18 h.
[3] abbreviates: infected mice, highest dose with no deaths for any reason.
Setting [4] is: 336 h, alive on day 14 considered cured, no 60-day data.
The mark [5] stands for this setting: alive on day 14 considered cured.
Setting [6] is: alive on day 14 considered cured, no 60-day data.

The MIC is the lowest concentration that inhibits growth of the organism. On to `Cc1cccc(Cn2ccc3c4c(N)nc(N)nc4ccc32)c1` [Example 20], for which the MIC with P. vulgaris 6896 turned out to be 1.95 µg/mL (≈ 6.43 µM); in the series with N. catarrhalis 8193 it was 0.031 µg/mL (≈ 0.102 µM); in the series with S. aureus 53-180, 0.488 µg/mL (≈ 1.61 µM); against E. coli 9637, 0.488 µg/mL (≈ 1.61 µM); against S. paratyphi 11737 it was 1.95 µg/mL (≈ 6.43 µM); with S. aureus Smith it was 0.976 µg/mL (≈ 3.22 µM). Moreover, the MIC against K. pneumoniae 10031 is 1.95 µg/mL (≈ 6.43 µM). In addition, the ED100 in [1] (1440 h, 60-day survivors) turned out to be 20 mg/kg. Further, the minimal effective dose in [1] (1440 h, 60-day survivors) was determined as 5 mg/kg. Also, the “Cure/Treat at Min. Curing Dose” value in series [1] (60-day survivors) is given as 4/5. Further, the “ΔMST (increase in mean survival time)” value in [1] (dose 5 mg. per kg.) came to 6.9. Besides, the MTD in series [2] (setting [3]) amounted to 320 mg/kg.
For `Cc1ccc(Cn2ccc3c4c(N)nc(N)nc4ccc32)c(C)c1` [Example 22], the MIC turned out to be 7.81 µg/mL (≈ 24.6 µM) in the series on P. vulgaris 6896; 0.0152 µg/mL (≈ 0.0479 µM) in the series with N. catarrhalis 8193; 0.244 µg/mL (≈ 0.769 µM) in the series with S. aureus 53-180; 0.976 µg/mL (≈ 3.08 µM) in the series on E. coli 9637; 3.4 µg/mL (≈ 10.7 µM) with S. paratyphi 11737; 0.244 µg/mL (≈ 0.769 µM) against S. aureus Smith. Inhibition of growth against K. pneumoniae 10031 (MIC) required 0.244 µg/mL (≈ 0.769 µM). For the same molecule, in [1] (setting [4]), the ED100 was 5 mg/kg. The minimal effective dose in [1] (setting [4]) amounted to 5 mg/kg. For the same molecule, in [1] (setting [5]), the “Cure/Treat at Min. Curing Dose” value is on record as 5/5. The “ΔMST (increase in mean survival time)” value in series [1] (dose 2.5 mg. per kg., alive on day 14 considered cured, no 60-day data) was found to be 7.6. In addition, the MTD in series [2] (setting [6]) stood at 80 mg/kg.
Regarding `Cc1cc(C)c(Cn2ccc3c4c(N)nc(N)nc4ccc32)c(C)c1` [Example 27], the MIC in the series on P. vulgaris 6896 is greater than 250 µg/mL; in the series on N. catarrhalis 8193, 0.244 µg/mL (≈ 0.736 µM); against S. aureus 53-180 it was 250 µg/mL (≈ 754 µM); in the series with E. coli 9637, greater than 250 µg/mL; in the series on S. paratyphi 11737 it was greater than 250 µg/mL; in the series on S. aureus Smith, 250 µg/mL (≈ 754 µM). Further, the MIC against K. pneumoniae 10031 was 31.3 µg/mL (≈ 94.4 µM). Moreover, the ED100 in series [1] (1440 h, 60-day survivors) was 40 mg/kg. In addition, the minimal effective dose in [1] (1440 h, 60-day survivors) was 5 mg/kg. Moreover, the “Cure/Treat at Min. Curing Dose” value in series [1] (60-day survivors) is on record as 3/5. The “ΔMST (increase in mean survival time)” value in series [1] (dose 2.5 mg. per kg.) is 7.3. In addition, in series [2] (setting [3]), the MTD was found to be 80 mg/kg.
For `CC(C)c1ccc(Cn2ccc3c4c(N)nc(N)nc4ccc32)cc1` [Example 29], the MIC came to 62.5 µg/mL (≈ 189 µM) in the series on P. vulgaris 6896; 0.244 µg/mL (≈ 0.736 µM) against N. catarrhalis 8193; 0.976 µg/mL (≈ 2.94 µM) against S. aureus 53-180; 7.81 µg/mL (≈ 23.6 µM) with E. coli 9637; 62.5 µg/mL (≈ 189 µM) in the series with S. paratyphi 11737; 1.95 µg/mL (≈ 5.88 µM) in the series on S. aureus Smith. Moreover, inhibition of growth against K. pneumoniae 10031 (MIC) required 0.488 µg/mL (≈ 1.47 µM). The ED100 in [1] (1440 h, 60-day survivors) was 20 mg/kg. For the same molecule, the minimal effective dose in series [1] (1440 h, 60-day survivors) was 10 mg/kg. Further, in series [1] (60-day survivors), the “Cure/Treat at Min. Curing Dose” value was 1/5. Besides, the “ΔMST (increase in mean survival time)” value in [1] (dose 10 mg. per kg.) is 10.2. Besides, the MTD in series [2] (setting [3]) came to 20 mg/kg.
As to `CSc1ccc(Cn2ccc3c4c(N)nc(N)nc4ccc32)cc1` [Example 31], the MIC in the series on P. vulgaris 6896 came to 31.3 µg/mL (≈ 93.3 µM); against N. catarrhalis 8193 it was 0.0152 µg/mL (≈ 0.0453 µM); against S. aureus 53-180, 0.488 µg/mL (≈ 1.45 µM); in the series on E. coli 9637 it was 0.488 µg/mL (≈ 1.45 µM); with S. paratyphi 11737, 3.9 µg/mL (≈ 11.6 µM); in the series with S. aureus Smith it was 0.976 µg/mL (≈ 2.91 µM). In the series on K. pneumoniae 10031, this molecule gave a minimum inhibitory concentration (MIC) of 0.122 µg/mL (≈ 0.364 µM). Also, in series [1] (setting [4]), the ED100 was determined as 20 mg/kg. The minimal effective dose in series [1] (setting [4]) was 2.5 mg/kg. The “Cure/Treat at Min. Curing Dose” value in series [1] (setting [5]) was 4/5. For the same molecule, in series [1] (dose 1.25 mg. per kg., alive on day 14 considered cured, no 60-day data), the “ΔMST (increase in mean survival time)” value was 6.2. In addition, in series [2] (setting [6]), the MTD came out at 40 mg/kg.
`COc1ccccc1Cn1ccc2c3c(N)nc(N)nc3ccc21` [Example 32]: the minimum inhibitory concentration (MIC) against P. vulgaris 6896 amounted to 3.9 µg/mL (≈ 12.2 µM); with N. catarrhalis 8193, 0.061 µg/mL (≈ 0.191 µM); with S. aureus 53-180 it was 0.976 µg/mL (≈ 3.06 µM); with E. coli 9637, 1.95 µg/mL (≈ 6.11 µM); against S. paratyphi 11737 it was 7.81 µg/mL (≈ 24.5 µM); with S. aureus Smith, 0.976 µg/mL (≈ 3.06 µM). In the series with K. pneumoniae 10031, it took 0.244 µg/mL (≈ 0.764 µM) to inhibit growth (MIC). In series [1] (1440 h, 60-day survivors), the ED100 came to 40 mg/kg. Also, the minimal effective dose in series [1] (1440 h, 60-day survivors) stood at 10 mg/kg. Besides, the “Cure/Treat at Min. Curing Dose” value in series [1] (60-day survivors) is 3/5. Also, the “ΔMST (increase in mean survival time)” value in [1] (dose 10 mg. per kg.) amounted to 10.5. The MTD in [2] (setting [3]) amounted to 160 mg/kg.
Consider `COc1cccc(Cn2ccc3c4c(N)nc(N)nc4ccc32)c1` [Example 33], for which the MIC in the series on P. vulgaris 6896 amounted to 7.81 µg/mL (≈ 24.5 µM); in the series with N. catarrhalis 8193, 0.976 µg/mL (≈ 3.06 µM); in the series with S. aureus 53-180, 0.976 µg/mL (≈ 3.06 µM); in the series on E. coli 9637 it was 0.488 µg/mL (≈ 1.53 µM); against S. paratyphi 11737 it was 7.81 µg/mL (≈ 24.5 µM); against S. aureus Smith, 3.9 µg/mL (≈ 12.2 µM). The MIC against K. pneumoniae 10031 is 0.488 µg/mL (≈ 1.53 µM). In addition, the ED100 in [1] (1440 h, 60-day survivors) worked out at 40 mg/kg. Besides, the minimal effective dose in [1] (1440 h, 60-day survivors) was 10 mg/kg. The “Cure/Treat at Min. Curing Dose” value in series [1] (60-day survivors) is 1/5. The “ΔMST (increase in mean survival time)” value in [1] (dose 5 mg. per kg.) is 7.6. In series [2] (setting [3]), the MTD came out at 40 mg/kg.
